Six compounds from US10294202B2, “Pyrrolidinones as herbicides” (FMC Corporation, priority 2013, dated 2019) can be followed below.

SMILES strings stand for the structures.

For one test, the system named is canarygrass. The test is described as follows: Test D pre-/postemergence herbicide test. The note with it: for Plant response rating: Canarygrass, scale 0 to 100; for Plant response rating, Canarygrass: scale 0 to 100 (0 no effect, 100 complete control). Format: in vivo, Phalaris minor. The text has this:
(§1) Seeds of plant species selected from bluegrass (annual bluegrass, Poa annua), blackgrass (Alopecurus myosuroides), canarygrass (littleseed canarygrass, Phalaris minor), chickweed (common chickweed, Stellaria media), galium (catchweed bedstraw, Galium aparine), bromegrass, downy (downy bromegrass, Bromus tectorum), field poppy (Papaver rhoeas), field violet (Viola arvensis), foxtail, green (green foxtail, Setaria viridis), deadnettle (henbit deadnettle, Lamium amplexicaule), ryegrass, Italian (Italian ryegrass, Lolium multiflorum), kochia (Kochia scoparia), lambsquarters (Chenopodium album), oilseed rape (Brassica napus), pigweed (Amaranthus retroflexus), chamomile (scentless chamomile, Matricaria inodora), Russian thistle (Salsola kali), speedwell (bird's-eye speedwell, Veronica persica), barley, spring (spring barley, Hordeum vulgare), wheat, spring (spring wheat, Triticum aestivum), buckwheat, wild (wild buckwheat, Polygonum convolvulus), mustard, wild (wild mustard, Sinapis arvensis), oat, wild (wild oat, Avena fatua), radish, wild (wild radish, Raphanus raphanistrum), […]), barley, winter (winter barley, Hordeum vulgare), and wheat, winter (winter wheat, Triticum aestivum) were planted into a silt loam soil and treated preemergence with test chemicals formulated in a non-phytotoxic solvent mixture which included a surfactant. At the same time, these species were planted in pots containing Redi-Earth® planting medium (Scotts Company, 14111 Scottslawn Road, Marysville, Ohio 43041) comprising spaghnum peat moss, vermiculite, wetting agent and starter nutrients and treated with postemergence applications of the test chemicals formulated in the same manner. Plants ranged in height from 2 to 18 cm (1- to 4-leaf stage). Treated plants and controls were maintained in a controlled growth environment for 7 to 21 days after which time all species were compared to controls and visually evaluated. Plant response ratings, summarized in Table D, are based on a scale of 0 to 100 where 0 is no effect and 100 is complete control. A dash (-) response means no test result.

The next test deals with galium. The test is described as follows: Test D pre-/postemergence herbicide test. Format: in vivo, Galium aparine. The note with it: for Plant response rating: Galium, scale 0 to 100; for Plant response rating, Galium: scale 0 to 100 (0 no effect, 100 complete control).
Text: as §1

In another test the test system is mustard, wild. The test is described as follows: Test D pre-/postemergence herbicide test. It counts as in vivo, Sinapis arvensis. The note with it: for Plant response rating: Mustard, Wild, scale 0 to 100; for Plant response rating, Mustard, Wild: scale 0 to 100 (0 no effect, 100 complete control).
Text: as §1

The subject of the next test is radish, wild. The test is described as follows: Test D pre-/postemergence herbicide test. Format: in vivo, Raphanus raphanistrum. Particulars: for Plant response rating: Postemergence, Radish, Wild, scale 0 to 100; for Plant response rating, Radish, Wild: Preemergence, scale 0 to 100 (0 no effect, 100 complete control).
Text: as §1

Another test concerns goosegrass. The test is described as follows: Test E preemergence herbicide test. Format: in vivo, Eleusine indica. More on the design: key: 0 = no effect, 100 = complete control. The text has this: (§2) Seeds of plant species selected from corn (Zea mays), soybean (Glycine max), velvetleaf (Abutilon theophrasti), lambsquarters (Chenopodium album), wild poinsettia (Euphorbia heterophylla), pigweed, palmer (palmer pigweed, Amaranthus palmeri), waterhemp (common waterhemp, Amaranthus rudis), surinam grass (Brachiaria decumbens), crabgrass, large (large crabgrass, Digitaria sanguinalis), crabgrass, Brazil (Brazilian crabgrass, Digitaria horizontalis), panicum, fall (fall panicum, Panicum dichotomiflorum), foxtail, giant (giant foxtail, Setaria faberii), foxtail, green (green foxtail, Setaria viridis), goosegrass (Eleusine indica), johnsongrass (Sorghum halepense), ragweed (common ragweed, Ambrosia elatior), barnyardgrass (Echinochloa crus-galli), sandbur (southern sandbur, Cenchrus echinatus), arrowleaf […] rhombifolia), ryegrass, Italian (Italian ryegrass, Lolium multiflorum), dayflower, VA (Virginia dayflower, Commelina virginica), field bindweed (Convolvulus arvensis), morningglory (Ipomoea coccinea), nightshade (eastern black nightshade, Solanum ptycanthum), kochia (Kochia scoparia), nutsedge, yellow (yellow nutsedge, Cyperus esculentus), cocklebur (common cocklebur, Xanthium strumarium), smartweed (ladysthumb smartweed, Polygonum Persicaria) and beggarticks (hairy beggarticks, Bidens pilosa), were planted into a silt loam soil and treated preemergence with test chemicals formulated in a non-phytotoxic solvent mixture which included a surfactant. Treated plants and controls were maintained in a greenhouse for 21 days, after which time all species were compared to controls and visually evaluated. Plant response ratings, summarized in Table E, are based on a scale of 0 to 100 where 0 is no effect and 100 is complete control. A dash (-) response means no test result.

The test system of a further test is ryegrass, Italian. The test is described as follows: Test E preemergence herbicide test. Format: in vivo, Lolium multiflorum. Details: key: 0 = no effect, 100 = complete control.
Text: as §2

As to `O=C1NCC(c2ccc(F)c(F)c2)C1C(=O)Nc1cccc(F)c1` (racemic) [Compound 12], the Plant response rating in the test on canarygrass (Postemergence, 16 g ai/ha) came to 0; with canarygrass (Postemergence, 31 g ai/ha) it was 0; in the test with canarygrass (Postemergence, 62 g ai/ha), 15; in the test with canarygrass (Postemergence, 125 g ai/ha) it was 15; with canarygrass (Postemergence, 250 g ai/ha), 30; in the test with canarygrass (Preemergence, 125 g ai/ha), 20. Moreover, the Plant response rating in the test with canarygrass (Preemergence, 250 g ai/ha) was determined as 40; with galium (Postemergence, 16 g ai/ha) it was 0; in the test with galium (Postemergence, 31 g ai/ha), 0; in the test on galium (Postemergence, 62 g ai/ha) it was 15; in the test on galium (Postemergence, 125 g ai/ha), 20; in the test on galium (Postemergence, 250 g ai/ha), 25. The Plant response rating was 0 with galium (Preemergence, 125 g ai/ha); 10 in the test on galium (Preemergence, 250 g ai/ha); 0 in the test on mustard, wild (Postemergence, 16 g ai/ha); 10 in the test on mustard, wild (Postemergence, 31 g ai/ha); 40 with mustard, wild (Postemergence, 62 g ai/ha); 100 with mustard, wild (Postemergence, 125 g ai/ha). Also, the Plant response rating is 20 with mustard, wild (Preemergence, 125 g ai/ha); 70 in the test on mustard, wild (Preemergence, 250 g ai/ha); 0 in the test on radish, wild (16 g ai/ha); 0 in the test on radish, wild (31 g ai/ha); 20 with radish, wild (62 g ai/ha); 25 in the test on radish, wild (125 g ai/ha). The Plant response rating in the test with radish, wild (250 g ai/ha) turned out to be 25. Also, the “Plant response rating, Canarygrass” value with canarygrass (Preemergence, 31 g ai/ha) worked out at 0; in the test on canarygrass (Preemergence, 62 g ai/ha) it was 0; with canarygrass (Preemergence, 16 g ai/ha), 0. The “Plant response rating, Galium” value was 0 with galium (Preemergence, 31 g ai/ha); 0 with galium (Preemergence, 62 g ai/ha); 0 in the test on galium (Preemergence, 16 g ai/ha). The “Plant response rating, Mustard, Wild” value in the test on mustard, wild (Preemergence, 31 g ai/ha) was determined as 0; in the test with mustard, wild (Preemergence, 62 g ai/ha) it was 0; in the test with mustard, wild (Preemergence, 16 g ai/ha) it was 0. The “Plant response rating, Radish, Wild” value in the test with radish, wild (16 g ai/ha) is 0.
Turning to `O=C1NCC(c2cc(F)c(F)c(F)c2)C1C(=O)Nc1ccccc1C(F)(F)F` (racemic) [Compound 33], the Plant response rating is on record as 0 in the test on canarygrass (Postemergence, 16 g ai/ha); 0 in the test on canarygrass (Postemergence, 31 g ai/ha); 0 in the test with canarygrass (Postemergence, 62 g ai/ha); 0 with canarygrass (Postemergence, 125 g ai/ha); 0 in the test on canarygrass (Postemergence, 250 g ai/ha); 0 in the test on galium (Postemergence, 16 g ai/ha). Moreover, the Plant response rating in the test with galium (Postemergence, 31 g ai/ha) was determined as 0; with galium (Postemergence, 62 g ai/ha) it was 0; in the test on galium (Postemergence, 125 g ai/ha), 0; with galium (Postemergence, 250 g ai/ha) it was 0; in the test on mustard, wild (Postemergence, 16 g ai/ha) it was 0; with mustard, wild (Postemergence, 31 g ai/ha), 0. Besides, the Plant response rating came out at 0 in the test with mustard, wild (Postemergence, 62 g ai/ha); 0 with mustard, wild (Postemergence, 125 g ai/ha); 0 with mustard, wild (Postemergence, 250 g ai/ha); 0 with radish, wild (16 g ai/ha); 0 with radish, wild (31 g ai/ha); 0 in the test on radish, wild (62 g ai/ha). For the same compound, the Plant response rating was found to be 0 in the test on radish, wild (125 g ai/ha) and 0 with radish, wild (250 g ai/ha).
Regarding `O=C1NCC(c2cccc(C(F)(F)F)c2)C1C(=O)Nc1cccc(F)c1F` (stereo not shown) [Compound 241], the “Plant response rating, Canarygrass” value is reported as 20 with canarygrass (Preemergence, 31 g ai/ha); 45 in the test with canarygrass (Preemergence, 62 g ai/ha); 65 with canarygrass (Preemergence, 125 g ai/ha). Moreover, the Plant response rating is on record as 75 with canarygrass (Preemergence, 250 g ai/ha); 80 with galium (Preemergence, 250 g ai/ha); 25 with mustard, wild (Preemergence, 250 g ai/ha). Besides, the “Plant response rating, Galium” value with galium (Preemergence, 31 g ai/ha) is listed as 20; in the test on galium (Preemergence, 62 g ai/ha), 25; in the test with galium (Preemergence, 125 g ai/ha), 35. In addition, the “Plant response rating, Mustard, Wild” value in the test with mustard, wild (Preemergence, 31 g ai/ha) is recorded as 10; in the test with mustard, wild (Preemergence, 62 g ai/ha), 15; in the test on mustard, wild (Preemergence, 125 g ai/ha), 15. For the same compound, the “Plant response rating, Radish, Wild” value with radish, wild (31 g ai/ha) amounted to 0; in the test with radish, wild (62 g ai/ha), 0; in the test with radish, wild (125 g ai/ha), 0; with radish, wild (250 g ai/ha), 0.
Regarding `O=C1NCC(c2cccc(Br)c2)C1C(=O)Nc1ccccc1F` (stereo not shown) [Compound 66], the “Plant response rating, Goosegrass” value in the test on goosegrass (16 g ai/ha), with goosegrass (31 g ai/ha), in the test with goosegrass (62 g ai/ha), with goosegrass (125 g ai/ha) and with goosegrass (250 g ai/ha) was 0 throughout. Moreover, the “Plant response rating, Ryegrass, Italian” value was 0 in the test with ryegrass, Italian (16 g ai/ha); 0 in the test on ryegrass, Italian (31 g ai/ha); 0 in the test on ryegrass, Italian (62 g ai/ha); 0 in the test on ryegrass, Italian (125 g ai/ha); 0 with ryegrass, Italian (250 g ai/ha).
For the compound `O=C1NCC(c2ccc(C(F)(F)F)cc2)C1C(=O)Nc1ccc(F)c(F)c1F` (stereo not shown) [Compound 232], the “Plant response rating, Goosegrass” value was determined as 35 in the test on goosegrass (31 g ai/ha), 80 with goosegrass (62 g ai/ha), 85 in the test on goosegrass (125 g ai/ha) and 95 in the test with goosegrass (250 g ai/ha). Moreover, the “Plant response rating, Ryegrass, Italian” value in the test with ryegrass, Italian (31 g ai/ha) was determined as 0; in the test on ryegrass, Italian (62 g ai/ha), 10; in the test on ryegrass, Italian (125 g ai/ha) it was 20; in the test with ryegrass, Italian (250 g ai/ha) it was 40.
Turning to `O=C1NCC(c2cc(F)c(F)c(F)c2)C1C(=O)Nc1ccccc1F` (racemic) [Compound 34], the Plant response rating with canarygrass (Postemergence, 16 g ai/ha) was 0; in the test with canarygrass (Postemergence, 31 g ai/ha), 0; in the test with canarygrass (Postemergence, 62 g ai/ha), 0; with canarygrass (Postemergence, 125 g ai/ha), 0; in the test with canarygrass (Postemergence, 250 g ai/ha), 0; in the test with galium (Postemergence, 16 g ai/ha), 0. Further, the Plant response rating with galium (Postemergence, 31 g ai/ha) stood at 0; in the test on galium (Postemergence, 62 g ai/ha), 0; in the test on galium (Postemergence, 125 g ai/ha), 0; in the test with galium (Postemergence, 250 g ai/ha) it was 0; with mustard, wild (Postemergence, 16 g ai/ha) it was 0; in the test on mustard, wild (Postemergence, 31 g ai/ha) it was 0. Moreover, the Plant response rating in the test with mustard, wild (Postemergence, 62 g ai/ha) is 0; in the test with mustard, wild (Postemergence, 125 g ai/ha), 10; in the test on mustard, wild (Postemergence, 250 g ai/ha), 20; in the test on radish, wild (16 g ai/ha), 0; in the test with radish, wild (31 g ai/ha) it was 0; in the test on radish, wild (62 g ai/ha), 0. The Plant response rating in the test on radish, wild (125 g ai/ha) was 0; in the test on radish, wild (250 g ai/ha) it was 0.
